Where a name gives a salt, the structure may show the parent alone. Read-outs that look alike come from different tables or passages of the source.
Tests used:
[1] = test system: intraperitoneal cells; assay: Histamine release reaction inhibition test (rat intraperitoneal cells, DNP-As antigen); type: cell-based, Wistar male rat; conditions: 10^-5 to 10^-10 M test compound, DNP-As stimulated intraperitoneal cells, 10^5 cells/ml, read-out: IC50 (dose of the test compound required for inhibiting the histamine release reaction by 50%)
Experimental: Histamine release reaction inhibition test
(1) Preparation of antiserum
Rat anti-dinitrophenylated ascaris protein (hereinafter referred to as "DNP-As") serum was prepared according to the method established by Tada et al. (Tada, T. and Okumura, K., J. Immun. 106(4), 1971). Specifically, 1010 organisms of Bordetella pertussis and 1 mg of DNP-As were intramuscularly administered to the foot pad of the limbs of Brown norway male rats weighing 200 g, and, five days after the administration, 0.5 mg of DNP-As was intramuscularly administered to the back. Three days after that, blood was collected to prepare an antiserum. The titer of the antiserum was determined by using a 48-hr passive cutaneous anaphylaxis reaction using a rat and found to be 1:1000 to 1:2000.
(2) Induction of histamine release reaction and release reaction inhibitory activity
The above serum was diluted four times with physiological brine, and 1 ml of the diluted serum was intraperitoneally administered to a Wistar male rat. Two days after the administration, the abdominal cavity was washed with phosphate buffer, and intraperitoneal cells were collected. The cells were adjusted to 10^5 cells/ml and stimulated with 1 pg/ml DNP-As, and the amount of the histamine released on the supernatant was measured by the method established by Shore et al (Shore, P. A., Burkhalter, A. H. and Chon Jr. V. H. J. Pharm. Exp. Ther., 127 , 182-186 (1959)).
The amount of the released histamine treated with 10^-5 to 10^-10 M test compound was compared with that of non-treated group. The dose of the test compound required for inhibiting the histamine release reaction by 50% (IC50) was calculated based on the percentage inhibition. IC50 of sodium cromoglicate was used as a control.

[2] = test system: allergic foot-pad edema reaction; assay: Immediate and late phase allergic response inhibition test (allergic foot-pad edema reaction); type: in vivo, Wister male rats; conditions: Rattus norvegicus, po, 20 mg/kg orally, 10 min before induction
Experimental: Immediate and late phase allergic response inhibition test
Wister male rats weighing of 200 g were provided. 1010 organisms of Bordetella pertussis and 1 mg of dinitrophenylated ovalbumin (hereinafter abbreviated to "DNP-OA") were intramuscularly administered into the foot pad of the limbs of the rats except for the right hind leg. Further, ten days after the administration, 5 pg/site DNP-OA was subcutaneously administered to the right hind leg to induce allergic foot-pad edema reaction. The inhibitory activity of the test compounds was determined in such a manner that the volume of edema 30 min after the induction of the allergic reaction was regarded as an immediate phase allergic response and the volume of edema 8 hr after the induction of the allergic reaction was regarded as a late phase allergic response. Each test compound was dissolved or suspended in a 0.25% Tween 80 solution, and the solution or suspension was orally administered at a dose of 20 mg/kg 10 min before the induction of the allergic reaction.
Only the 0.25% Tween 80 solution was administered to the control group of rats not treated with any test compound, and 100 mg/kg sodium cromoglicate was subcutaneously or orally administered to the positive control group of rats.
The percentage inhibition of the allergic foot-pad edema reaction was determined by the following equation.
Percentage inhibition of allergic foot-pad edema reaction=(A-B)/A×100
wherein A: average edema volume for the non-treated control group of rats; and
B: average edema volume for the group of rats with the test compound administered.

[3] = 0.5 h, edema 30 min after induction, read-out: Inhibition (%) Immediate phase response
[4] = edema 8 hr after induction, read-out: Inhibition (%) Late phase response

IC50 [1] [nM]	Compound	inhibition in vivo at 20 mg/kg [2, 3] [%]	inhibition in vivo at 20 mg/kg [2, 4] [%]
2.4	O=c1[nH]c2cc(/C=C/c3ccncc3)ccc2c(=O)c2[nH]nnc12 [Example 10, 4(5H),10-Dioxo-7-(2-(4-pyridyl)-(E)-ethenyl)-1H-1,2,3-triazolo[4,5-c][1]benzazepine trifluoroacetate]	44	59
69	O=c1[nH]c2cc3c(cc2c(=O)c2[nH]nnc12)OCO3 [Example 26, 7,8-Methylenedioxy-4(5H),10-dioxo-1H-1,2,3-triazolo[4,5-c][1]benzazepine]	43	29
9.9	CCN(Cc1ccccn1)C(=O)COc1ccc2c(=O)c3[nH]nnc3c(=O)[nH]c2c1 [Example 15, 7-(N-Ethyl-N-(2-pyridylmethyl)carbamoylmethyloxy)-4(5H),10-dioxo-1H-1,2,3-triazolo[4,5-c][1]benzazepine trifluoroacetate]	34	25
4.9	CC(C)Oc1cc2[nH]c(=O)c3nn[nH]c3c(=O)c2cc1OC(C)C [Example 25, 7,8-diisopropoxy-4(5H),10-dioxo-1H-1,2,3-triazolo[4,5-c][1]benzazepine]	59	38
0.4	O=c1[nH]c2cc(/C=C/c3ccc4ccccc4n3)ccc2c(=O)c2[nH]nnc12 [Example 33, 4(5H),10-Dioxo-7-(2-(2-quinolyl)-(E)-ethenyl)-1H-1,2,3-triazolo[4,5-c][1]benzazepine trifluoroacetate]	–	–
6.2	O=C(COc1ccc2c(=O)c3[nH]nnc3c(=O)[nH]c2c1)N(Cc1ccccn1)Cc1ccccn1 [Example 18, 7-(N,N-Bis(2-pyridylmethyl)carbamoylmethyloxy)-4(5H),10-dioxo-1H-1,2,3-triazolo[4,5-c][1]benzazepine ditrifluoroacetate]	40	5
5.3	O=c1[nH]c2cc(C(F)(F)F)ccc2c(=O)c2[nH]nnc12 [Example 34, 7-Trifluoromethyl-4(5H),10-dioxo-1H-1,2,3-triazolo[4,5-c][1]benzazepine]	66	59
13	CCN(Cc1ccccn1)C(=O)CCc1ccc2c(=O)c3[nH]nnc3c(=O)[nH]c2c1 [Example 4, 7-(2-(N-Ethyl-N-(2-pyridyl)methyl)carbamoyl)ethyl-4(5H),10-dioxo-1H-1,2,3-triazolo[4,5-c][1]benzazepine]	48	21
12	COC(=O)c1cc2c(s1)CCN(C(=O)CCc1ccc3c(=O)c4[nH]nnc4c(=O)[nH]c3c1)C2 [Example 7, 7-(2-(2-Methoxycarbonyl-4,5,6,7-tetrahydrothieno[3,2-c]pyridin-5-yl)carbonylethyl)-4(5H),10-dioxo-1H-1,2,3-triazolo[4,5-c][1]benzazepine]	20	-3
2.4	COc1cc2[nH]c(=O)c3nn[nH]c3c(=O)c2cc1OC(C)C [Example 23, 8-Isopropoxy-7-methoxy-4(5H),10-dioxo-1H-1,2,3-triazolo[4,5-c][1]benzazepine]	71	56
11	CN1CCN(CCCOc2ccc3c(=O)c4[nH]nnc4c(=O)[nH]c3c2)CC1 [Example 13, 7-(3-(4-Methyl-1-piperazino)propoxy)-4(5H),10-dioxo-1H-1,2,3-triazolo[4,5-c][1]benzazepine ditrifluoroacetate]	28	28
9.5	CN1CCN(C(=O)CCc2ccc3c(=O)c4[nH]nnc4c(=O)[nH]c3c2)CC1 [Example 8, 7-(2-(4-Methylpiperazin-1-yl)carbonylethyl)-4(5H),10-dioxo-1H-1,2,3-triazolo[4,5-c][1]benzazepine]	42	20
1.8	O=c1[nH]c2cc(/C=C/c3ccccn3)ccc2c(=O)c2[nH]nnc12 [Example 11, 4(5H),10-Dioxo-7-(2-(2-pyridyl)-(E)-ethenyl)-1H-1,2,3-triazolo[4,5-c][1]benzazepine trifluoroacetate]	–	–
4.5	O=C(CCc1ccc2c(=O)c3[nH]nnc3c(=O)[nH]c2c1)N1CCc2ccccc2C1 [Example 6, 7-(2-(1,2,3,4-Tetrahydro-2-isoquinolyl)carbonylethyl)-4(5H),10-dioxo-1H-1,2,3-triazolo[4,5-c][1]benzazepine]	19	29
6	O=C(/C=C/c1ccc2c(=O)c3[nH]nnc3c(=O)[nH]c2c1)Nc1ccccc1C(=O)O [Example 1, 7-(2-(N-(2-Carboxyphenyl)carbamoyl)-(E)-ethenyl)-4(5H),10-dioxo-1H-1,2,3-triazolo[4,5-c][1]benzazepine]	–	–
10	COc1ccc(C(=O)COc2cc3c(=O)c4[nH]nnc4c(=O)[nH]c3cc2C)cc1 [Example 27, 8-(4-Methoxyphenacyloxy)-7-methyl-4(5H),10-dioxo-1H-1,2,3-triazolo[4,5-c][1]benzazepine]	–	–
4.6	CN(Cc1ccccn1)C(=O)CCc1ccc2c(=O)c3[nH]nnc3c(=O)[nH]c2c1 [Example 3, 4(5H),10-dioxo-7-(2-(N-methyl-N-(2-pyridyl)methyl)carbamoyl)ethyl-1H-1,2,3-triazolo[4,5-c][1]benzazepine]	44	14
11	O=c1[nH]c2cc(OCCCN3CCC(Cc4ccccc4)CC3)ccc2c(=O)c2[nH]nnc12 [Example 14, 7-(3-(4-Benzylpiperidino)propoxy)-4(5H),10-dioxo-1H-1,2,3-triazolo[4,5-c][1]benzazepine trifluoroacetate]	32	15
4.1	Cc1ccc(C(=O)Oc2ccc3c(=O)c4[nH]nnc4c(=O)[nH]c3c2)cc1 [Example 17, 4(5H),10-Dioxo-7-(4-toluoyloxy)-1H-1,2,3-triazolo[4,5-c][1]benzazepine]	44	24
4.6	CC(=O)Nc1ccc2c(=O)c3[nH]nnc3c(=O)[nH]c2c1 [Example 21, 7-Acetylamino-4(5H),10-dioxo-1H-1,2,3-triazolo[4,5-c][1]benzazepine]	43	26
2	O=c1[nH]c2cc(C=Cc3cccnc3)ccc2c(=O)c2[nH]nnc12 [Example 31, 4(5H),10-Dioxo-7-(2-(3-pyridyl)ethenyl)-1H-1,2,3-triazolo[4,5-c][1]benzazepine trifluoroacetate (E:Z=1:2)]	–	–
4.4	O=C(CCc1ccc2c(=O)c3[nH]nnc3c(=O)[nH]c2c1)NCc1ccccn1 [Example 2, 4(5H),10-dioxo-7-(2-(N-(2-pyridyl)methyl)carbamoyl)ethyl-1H-1,2,3-triazolo[4,5-c][1]benzazepine]	57	43
31	Cc1cc(C)c2[nH]c(=O)c3nn[nH]c3c(=O)c2c1 [Example 29, 6,8-Dimethyl-4(5H),10-dioxo-1H-1,2,3-triazolo[4,5-c][1]benzazepine]	–	–

Compound	IC50 [1] [nM]	inhibition in vivo at 20 mg/kg [2, 3] [%]	inhibition in vivo at 20 mg/kg [2, 4] [%]
O=C(Nc1ccc2c(=O)c3[nH]nnc3c(=O)[nH]c2c1)c1ccc(OCCCCc2ccccc2)cc1 [Example 22, 4(5H),10-Dioxo-7-(4-phenylbutoxybenzoylamino)-1H-1,2,3-triazolo[4,5-c][1]benzazepine]	8.1	40	41
